In general, MFC refers to the smallest concentration meeting the test's criterion for killing the fungus. The low end stands for greater fungicidal potency, the high end for weaker fungicidal potency. For orientation: IC50 means the concentration that inhibits the measured activity by half.

From ChEMBL document CHEMBL3881525, “Analogs of dehydrophenylahistins and their therapeutic use” (2007) come the findings set out here.

Each structure is given as a SMILES string. Values after ≈ are worked out from the molar mass of the structure shown. Active and inactive are the calls of the source. A value given as a limit tells only on which side of the number the result lay.

The subject of series [1] is Nakaseomyces glabratus. As to the kind of experiment: Fungicidal activity against Candida glabrata measured after 48 hrs by broth dilution method. Type of series: functional. For orientation: In broth dilution the organism is exposed to a series of concentrations in liquid medium.
A short description of series [2]: Cytotoxicity against mouse P388 cells assessed as reduction in cell viability measured after 48 hrs by resazurin dye-based fluorometric analysis. Type of series: functional. To be noted: P388, 48 h. A general note: Resazurin is reduced to fluorescent resorufin, in cell work by metabolically active cells.
Series [3] deals with HeLa. Kind of series: Effect on cell cycle progression in human HeLa cells assessed as increase in 4N cells at 40 nM. Type of series: functional, cell-based.
Series [4] concerns the target Tubulin (Candida albicans) (UniProt P87066+P10875+O93807). As to the kind of experiment: Inhibition of microtubule formation in Candida albicans. Type of series: protein-complex assay.
Series [5] has as its system HeLa. Kind of series: Effect on cell cycle progression in human HeLa cells assessed as reduction in 2N cells at 40 nM. Type of series: functional, cell-based.
Series [6] can be described thus: Drug level assessed as human hepatic cytochrome P450-mediated compound formation treated with (+/-)phenylahistin. Type of series: ADME.

Tubulin (Candida albicans), sequence (O93807 whole entry, looked up): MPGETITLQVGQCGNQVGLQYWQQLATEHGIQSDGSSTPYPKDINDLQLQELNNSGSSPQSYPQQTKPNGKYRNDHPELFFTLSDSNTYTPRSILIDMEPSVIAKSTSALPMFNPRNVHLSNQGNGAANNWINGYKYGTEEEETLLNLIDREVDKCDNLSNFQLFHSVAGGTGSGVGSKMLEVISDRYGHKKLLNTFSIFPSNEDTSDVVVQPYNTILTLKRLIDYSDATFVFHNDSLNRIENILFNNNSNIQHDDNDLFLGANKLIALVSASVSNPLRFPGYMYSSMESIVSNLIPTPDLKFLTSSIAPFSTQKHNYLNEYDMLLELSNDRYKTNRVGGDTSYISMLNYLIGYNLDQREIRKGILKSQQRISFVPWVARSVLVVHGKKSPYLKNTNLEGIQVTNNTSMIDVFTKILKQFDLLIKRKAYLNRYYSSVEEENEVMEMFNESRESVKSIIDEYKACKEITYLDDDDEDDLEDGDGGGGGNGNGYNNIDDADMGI
Tubulin (Candida albicans), sequence (P10875 whole entry, looked up): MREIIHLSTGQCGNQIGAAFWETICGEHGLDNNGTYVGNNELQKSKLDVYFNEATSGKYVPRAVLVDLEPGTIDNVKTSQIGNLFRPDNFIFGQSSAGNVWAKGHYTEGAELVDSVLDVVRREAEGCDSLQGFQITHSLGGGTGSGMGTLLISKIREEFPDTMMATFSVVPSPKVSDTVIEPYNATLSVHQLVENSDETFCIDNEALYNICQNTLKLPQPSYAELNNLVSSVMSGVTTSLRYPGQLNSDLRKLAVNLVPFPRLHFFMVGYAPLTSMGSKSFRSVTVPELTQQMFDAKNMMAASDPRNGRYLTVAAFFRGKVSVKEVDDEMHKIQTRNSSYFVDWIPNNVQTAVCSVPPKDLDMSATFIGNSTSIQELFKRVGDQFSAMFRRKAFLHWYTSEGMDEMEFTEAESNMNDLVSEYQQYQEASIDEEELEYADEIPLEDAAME
Tubulin (Candida albicans), sequence (P87066 whole entry, looked up): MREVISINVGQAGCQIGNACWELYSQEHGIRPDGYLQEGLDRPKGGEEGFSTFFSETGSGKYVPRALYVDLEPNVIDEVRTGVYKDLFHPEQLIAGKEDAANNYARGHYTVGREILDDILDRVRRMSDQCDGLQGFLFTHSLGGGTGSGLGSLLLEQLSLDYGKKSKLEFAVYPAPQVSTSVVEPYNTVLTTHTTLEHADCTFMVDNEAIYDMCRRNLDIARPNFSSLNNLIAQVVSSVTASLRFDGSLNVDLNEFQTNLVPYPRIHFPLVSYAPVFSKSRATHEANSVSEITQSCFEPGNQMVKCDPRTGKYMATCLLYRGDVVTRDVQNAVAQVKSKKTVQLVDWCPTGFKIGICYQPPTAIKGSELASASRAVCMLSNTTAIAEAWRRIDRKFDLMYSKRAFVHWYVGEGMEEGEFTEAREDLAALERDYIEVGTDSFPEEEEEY

In turn, `CCCCNC(=O)n1c(NC(=O)OC)nc2ccccc21` [BENOMYL] registered an MFC in series [1] of over 512 µg/mL.

Take `NS(=O)(=O)c1ccc(S(=O)(=O)Nc2cccc3c(Cl)c[nH]c23)cc1`: the IC50 in series [2] was 0.15 µg/mL (≈ 0.389 µM).

Consider `COC(=O)Nc1nc2cc(C(=O)c3cccs3)ccc2[nH]1`, for which the result in series [3] and in series [5] was Active. Besides, the inhibition result in series [4] was “Active”.

With `CC(C)(c1[nH]cnc1/C=C1\NC(=O)[C@H](Cc2ccccc2)NC1=O)C1CO1` (stereo in doubt), the Drug metabolism result in series [6] was “Metabolite_Detected”.
